Data published in patent US8796245B2 (TetraPhase Pharmaceuticals, Inc., priority 2008, dated 2014).
In brackets after ≈: the same amount, converted by molar mass. Where two headings read alike, the source gives them in different places.

How the values were obtained:
Format in all cases: cell-based
[1] = test system: E. coli ATCC 25922 (EC107); test: Minimum inhibitory concentration assay, EC107; conditions: Escherichia coli, ATCC25922; E. coli ATCC 25922, wt; read-out: MICs EC107
Procedure: (§1) Frozen bacterial strains were thawed and subcultured onto Mueller Hinton Broth (MHB) or other appropriate media (Streptococcus requires blood and Haemophilus requires hemin and NAD). Following incubation overnight, the strains were subcultured onto Mueller Hinton Agar and again incubated overnight. […] Isolated colonies were selected to prepare a starting inoculum equivalent to a 0.5 McFarland standard. The starting inoculum was diluted 1:125 using MHB for further use. Test compounds were prepared by dilution in sterile water to a final concentration of 5.128 mg/mL. Antibiotics (stored frozen, thawed and used within 3 hours of thawing) and compounds were further diluted to the desired working concentrations.
(§2) The assays were run as follows. Fifty μL of MHB was added to wells 2-12 of a 96-well plate. One hundred […] of appropriately diluted antibiotics was added to well 1. Fifty μL of antibiotics was removed from well 1 and added to well 2 and the contents of well 2 mixed by pipetting up and down five times. Fifty μL of the mixture in well 2 was removed and added to well 3 and mixed as above. Serial dilutions were continued in the same manner through well 12. Fifty μL was removed from well 12 so that all contained 50 μL. Fifty μL of the working inoculum was then added to all test wells. A growth control well was prepared by adding 50 μL of working inoculum and 50 μL of MHB to an empty well. The plates were then incubated at 37° C. overnight, removed from the incubator and each well was read on a plate reading mirror. The lowest concentration (MIC) of test compound that inhibited the growth of the bacteria was recorded.

[2] = test system: S. aureus ATCC 29213 (SA101, MSSA); test: Minimum inhibitory concentration assay, SA101; conditions: for MIC: Staphylococcus aureus, S. aureus ATCC 29213, MSSA control, read-out: MICs SA101; for MIC SA101 29213: control compounds, numeric MIC, 0.016 means 0.016 or lower
Procedure: as §1, §2

[3] = test system: S. pneumoniae ATCC 49619 (SP106); test: Minimum inhibitory concentration assay, SP106; conditions: Streptococcus pneumoniae, ATCC49619; S. pneumoniae ATCC 49619, wt; read-out: MICs SP106
Procedure: as §1, §2

[4] = test system: E. coli EC155 (tet resistant: tetA efflux); test: microbe, parasite or virus in culture
Procedure: as §1, §2

[5] = test system: S. aureus SA158 (tet resistant: tetK efflux); test: microbe, parasite or virus in culture; conditions: Staphylococcus aureus, read-out: MICs SA158
Procedure: as §1, §2

[6] = test system: K. pneumoniae KP153 (tet resistant: tetA efflux); test: microbe, parasite or virus in culture; conditions: Klebsiella pneumoniae, read-out: MICs KP153
Procedure: as §1, §2

[7] = test system: P. aeruginosa ATCC 27853 (PA111); test: Minimum inhibitory concentration assay, PA111
Procedure: as §1, §2

[8] = test system: A. baumanii ATCC 19606 (AB110); test: Minimum inhibitory concentration assay, AB110
Procedure: as §1, §2

[9] = test system: E. cloacae ATCC 13047 (EC108); test: Minimum inhibitory concentration assay, EC108
Procedure: as §1, §2

[10] = test system: K. pneumoniae ATCC 13883 (KP109); test: Minimum inhibitory concentration assay, KP109; conditions: Klebsiella pneumoniae, ATCC13883; K. pneumoniae ATCC 13883, wt; read-out: MICs KP109
Procedure: as §1, §2

[11] = test system: S. pneumoniae SP160 (tet resistant: tet M); test: Minimum inhibitory concentration assay, SP160; conditions: Streptococcus pneumoniae, read-out: MICs SP160
Procedure: as §1, §2

[12] = test system: E. faecalis ATCC 29212 (EF103); test: Minimum inhibitory concentration assay, EF103; conditions: Enterococcus faecalis, ATCC29212, read-out: MICs EF103
Procedure: as §1, §2

[13] = test system: S. aureus SA161 (tet resistant: tet(M) ribosomal protection); test: Minimum inhibitory concentration assay, SA161; conditions: Staphylococcus aureus, read-out: MICs SA161
Procedure: as §1, §2

[14] = test system: S. aureus ATCC 13709 (SA100, MSSA, Smith strain); test: Minimum inhibitory concentration assay, SA100; conditions: Staphylococcus aureus; S. aureus ATCC 13709, MSSA Smith strain; read-out: MICs SA100
Procedure: as §1, §2

[15] = test system: E. faecalis EF159 (tet resistant: tetM); test: Minimum inhibitory concentration assay, EF159; conditions: Enterococcus faecalis, read-out: MICs EF159
Procedure: as §1, §2

[16] = Escherichia coli, E. coli tet resistant: tetA (efflux), read-out: MICs EC155
[17] = Pseudomonas aeruginosa, ATCC27853, P. aeruginosa ATCC 27853, wt, read-out: MICs PA111
[18] = Acinetobacter baumannii, ATCC19606, A. baumanii ATCC 19606, wt, read-out: MICs AB110
[19] = Enterobacter cloacae, ATCC13047, E. cloacae ATCC 13047, wt, read-out: MICs EC108
[20] = EC155 tetA, control compounds, numeric
[21] = PA111, control compounds, numeric
[22] = AB110, control compounds, numeric
[23] = EC108, control compounds, numeric

For `CCCN(C)CC(=O)Nc1cc(F)c2c(c1O)C(=O)C1=C(O)[C@]3(O)C(=O)C(C(N)=O)=C(O)[C@@H](N(C)C)[C@@H]3C[C@@H]1C2` [Compound 28], the MIC [1] was 2 µg/mL (≈ 3.57 µM), the MIC [2] was 1 µg/mL (≈ 1.78 µM) and the MIC [3] was 0.125 µg/mL (≈ 0.223 µM). The MIC [4, 16] was 16 µg/mL (≈ 28.5 µM), the MIC [5] was 1 µg/mL (≈ 1.78 µM) and the MIC [6] was 16 µg/mL (≈ 28.5 µM). The MIC [7, 17] was greater than 32 µg/mL, the MIC [8, 18] was 0.5 µg/mL (≈ 0.892 µM) and the MIC [9, 19] was 8 µg/mL (≈ 14.3 µM). It also gave an MIC [10] of 4 µg/mL (≈ 7.14 µM), an MIC [11] of 0.0625 µg/mL (≈ 0.111 µM) and an MIC [12] of 1 µg/mL (≈ 1.78 µM). It also gave an MIC [13] of 2 µg/mL (≈ 3.57 µM), an MIC [14] of 2 µg/mL (≈ 3.57 µM) and an MIC [15] of 1 µg/mL (≈ 1.78 µM).
`CCN(CC)CC(=O)Nc1cc(F)c2c(c1O)C(=O)C1=C(O)[C@]3(O)C(=O)C(C(N)=O)=C(O)[C@@H](N(C)C)[C@@H]3C[C@@H]1C2` [Compound 25] showed an MIC [1] of 0.5 µg/mL (≈ 0.892 µM), an MIC [2] of 0.125 µg/mL (≈ 0.223 µM) and an MIC [3] of no more than 0.0156 µg/mL. The MIC [4, 16] was 8 µg/mL (≈ 14.3 µM), the MIC [5] was 0.0313 µg/mL (≈ 0.0558 µM) and the MIC [6] was 8 µg/mL (≈ 14.3 µM). For the same compound, the MIC [7, 17] was 32 µg/mL (≈ 57.1 µM), the MIC [8, 18] was 0.125 µg/mL (≈ 0.223 µM) and the MIC [9, 19] was 2 µg/mL (≈ 3.57 µM). For the same compound, the MIC [10] was 2 µg/mL (≈ 3.57 µM), the MIC [11] was no more than 0.0156 µg/mL and the MIC [12] was no more than 0.0156 µg/mL. It also gave an MIC [13] of 0.125 µg/mL (≈ 0.223 µM), an MIC [14] of 0.125 µg/mL (≈ 0.223 µM) and an MIC [15] of 0.0625 µg/mL (≈ 0.111 µM).
With `CN(C)[C@@H]1C(O)=C(C(N)=O)C(=O)[C@@]2(O)C(O)=C3C(=O)c4c(O)c(NC(=O)CN5CCC5)cc(F)c4C[C@H]3C[C@@H]12` [Compound 32] the MIC [1] was 0.25 µg/mL (≈ 0.459 µM), the MIC [2] was 0.125 µg/mL (≈ 0.23 µM) and the MIC [3] was no more than 0.0156 µg/mL. The MIC [4, 16] was 8 µg/mL (≈ 14.7 µM), the MIC [5] was 0.5 µg/mL (≈ 0.918 µM) and the MIC [6] was 4 µg/mL (≈ 7.35 µM). For the same compound, the MIC [7, 17] was 8 µg/mL (≈ 14.7 µM), the MIC [8, 18] was 2 µg/mL (≈ 3.67 µM) and the MIC [9, 19] was 1 µg/mL (≈ 1.84 µM). The MIC [10] was 1 µg/mL (≈ 1.84 µM), the MIC [11] was no more than 0.0156 µg/mL and the MIC [12] was 0.0625 µg/mL (≈ 0.115 µM). It also gave an MIC [13] of 0.25 µg/mL (≈ 0.459 µM), an MIC [14] of 0.5 µg/mL (≈ 0.918 µM) and an MIC [15] of 0.125 µg/mL (≈ 0.23 µM).
`COCCNCC(=O)Nc1cc(F)c2c(c1O)C(=O)C1=C(O)[C@]3(O)C(=O)C(C(N)=O)=C(O)[C@@H](N(C)C)[C@@H]3C[C@@H]1C2` [Compound 21] gave an MIC [1] of 1 µg/mL (≈ 1.78 µM), an MIC [2] of 0.25 µg/mL (≈ 0.444 µM) and an MIC [3] of no more than 0.0156 µg/mL. For the same compound, the MIC [4, 16] was 16 µg/mL (≈ 28.4 µM), the MIC [5] was 4 µg/mL (≈ 7.11 µM) and the MIC [6] was 8 µg/mL (≈ 14.2 µM). It also gave an MIC [7, 17] of 16 µg/mL (≈ 28.4 µM), an MIC [8, 18] of 2 µg/mL (≈ 3.56 µM) and an MIC [9, 19] of 4 µg/mL (≈ 7.11 µM). The MIC [10] was 2 µg/mL (≈ 3.56 µM), the MIC [11] was 0.0625 µg/mL (≈ 0.111 µM) and the MIC [12] was 0.125 µg/mL (≈ 0.222 µM). For the same compound, the MIC [13] was 0.5 µg/mL (≈ 0.889 µM), the MIC [14] was 0.25 µg/mL (≈ 0.444 µM) and the MIC [15] was 1 µg/mL (≈ 1.78 µM).
For `CN(C)c1cc(NC(=O)CNC(C)(C)C)c(O)c2c1C[C@H]1C[C@H]3[C@H](N(C)C)C(O)=C(C(N)=O)C(=O)[C@@]3(O)C(O)=C1C2=O` [Tigecycline], the MIC SA101 29213 [2] was 0.06 µg/mL (≈ 0.102 µM), the MIC [4, 20] was 0.5 µg/mL (≈ 0.854 µM) and the MIC [7, 21] was 8 µg/mL (≈ 13.7 µM). The MIC [8, 22] was 0.25 µg/mL (≈ 0.427 µM) and the MIC [9, 23] was 0.25 µg/mL (≈ 0.427 µM).
With `CN(C)[C@@H]1C(O)=C(C(N)=O)C(=O)[C@@]2(O)C(O)=C3C(=O)c4c(O)cccc4C[C@H]3C[C@@H]12` [Sancycline] the MIC SA101 29213 [2] was 0.5 µg/mL (≈ 1.21 µM), the MIC [4, 20] was 32 µg/mL (≈ 77.2 µM) and the MIC [7, 21] was greater than 32 µg/mL. For the same compound, the MIC [8, 22] was 0.25 µg/mL (≈ 0.603 µM) and the MIC [9, 23] was 8 µg/mL (≈ 19.3 µM).
With `CN(C)c1ccc(O)c2c1C[C@H]1C[C@H]3[C@H](N(C)C)C(O)=C(C(N)=O)C(=O)[C@@]3(O)C(O)=C1C2=O` [Minocycline] the MIC SA101 29213 [2] was 0.06 µg/mL (≈ 0.131 µM), the MIC [7, 21] was 16 µg/mL (≈ 35 µM) and the MIC [8, 22] was 0.06 µg/mL (≈ 0.131 µM). The MIC [9, 23] was 2 µg/mL (≈ 4.37 µM).
